Patent publication US11485708B2, “Compounds for treatment of PD-L1 diseases” (CHEMOCENTRYX, INC., priority 2019, dated 2022)

biological target: human PD-L1 / Human PD-1 (Homo sapiens (Human), UniProt Q9NZQ7); assay: Enzyme-Linked Immunosorbent Assay (ELISA), PD-1/PD-L1 binding; details: plates coated with human PD-L1, biotinylated human PD-1 added
Description: 96 Well plates were coated with 1 μg/mL of human PD-L1 (obtained from R&D) in PBS overnight at 4′° C. The wells were then blocked with 2% BSA in PBS (W/V) with 0.05% TWEEN-20 for 1 hour at 37′° C. The plates were washed 3 times with PBS/0.05% TWEEN-20 and the compounds were serial diluted (1:5) in dilution medium and added to the ELISA plates. Human PD-1 and biotin 0.3 μg/mL (ACRO Biosystems) were added and incubated for 1 hour at 37° C. then washed 3 times with PBS/0.05% TWEEN-20. A second block was performed with 2% BSA in PBS (WNV)/0.05% TWEEN-20 for 10 min at 37° C. and the plates were washed 3 times with PBS/0.05% TWEEN-20. Streptavidin-HIRP was added for 1 hour at 37° C. then the plates were washed 3 times with PBS/0.05% TWEEN-20. TMB substrate was added and reacted for 20 min at 37° C. A stop solution (2 N aqueous H2SO4) was added. The absorbance was read at 450 nm using a micro-plate spectrophotometer.

Chain of human PD-L1 / Human PD-1 (Q9NZQ7 19-239): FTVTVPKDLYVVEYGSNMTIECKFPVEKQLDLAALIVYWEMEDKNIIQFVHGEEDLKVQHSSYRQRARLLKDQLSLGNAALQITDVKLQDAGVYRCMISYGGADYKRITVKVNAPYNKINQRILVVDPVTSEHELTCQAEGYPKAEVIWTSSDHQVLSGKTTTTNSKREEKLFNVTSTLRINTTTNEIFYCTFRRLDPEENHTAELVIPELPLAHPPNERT

First: COc1cc(-c2cccc(-c3cccc(OCCCN4CCC(F)CC4)c3C)c2C)cc(OC)c1CN(C)C [Compd 1.079]
Second: COc1cc(-c2cccc(-c3cccc(OCCCN4CCC(F)CC4)c3C)c2C)ccc1CN(C)C [Compd 1.094]
The IC50 of the first is higher: 1000 to 10000 nM for the first, less than 1000 nM for the second.

`Cc1c(OCCCN2CCC(F)CC2)cccc1-c1cccc(-c2ccc3c(c2)OCCNC3)c1C` [Compd 1.080] and `Cc1c(OCCCN2CCC(F)CC2)cccc1-c1cccc(-c2ccc3c(c2)CCNC3)c1C` [Compd 1.110] cannot be ordered by IC50: less than 1000 nM for the first, less than 1000 nM for the second.

`Cc1c(OCCCN2CCC(F)CC2)cccc1-c1cccc(-c2ccc(CN(C)C)c(Cl)c2)c1C` [Compd 1.081] and `Cc1cc(-c2cccc(-c3cccc(OCCCN4CCC(F)CC4)c3C)c2C)ccc1CN(C)C` [Compd 1.083] cannot be ordered by IC50: less than 1000 nM for the first, less than 1000 nM for the second.

Compared with `Cc1c(OCCCN2CCC(F)CC2)cccc1-c1cccc(-c2ccc(CN)cc2F)c1C` [Compd 1.082], `Cc1c(OCCCN2CCC(F)CC2)cccc1-c1cccc(-c2ccc(CN)cc2Cl)c1C` [Compd 1.096] is higher in IC50: less than 1000 nM for the first, 1000 to 10000 nM for the second. The first is the more potent here.

First: Cc1c(OCCCN2CCC(F)CC2)cccc1-c1cccc(-c2ccc(CN(C)C)c(C(F)(F)F)c2)c1C [Compd 1.084]
Second: Cc1c(OCCCN2CCC(F)CC2)cccc1-c1cccc(-c2ccc(CN)c(F)c2)c1C [Compd 1.086]
The IC50 of the first is higher: 1000 to 10000 nM for the first, less than 1000 nM for the second.

First: Cc1c(OCCCN2CCC2(C)C)cccc1-c1cccc(-c2ccc3c(c2)CCNC3)c1C(F)(F)F [Compd 1.085]
Second: Cc1c(OCCCN2CCC2(C)C)cccc1-c1cccc(-c2ccc3c(c2)CCNC3)c1F [Compd 1.090, 6-(3′-(3-(2,2-dimethylazetidin-1-yl)propoxy)-2-fluoro-2′-methyl-[1,1′-biphenyl]-3-yl)-1,2,3,4-tetrahydroisoquinoline]
The IC50 of the first is higher: 1000 to 10000 nM for the first, less than 1000 nM for the second. The second is the more potent here.

First: Cc1c(OCCCN2CCC(F)CC2)cccc1-c1cccc(-c2ccc3c(c2C)CCNC3)c1C [Compd 1.087]
Second: Cc1c(OCCCN2CCC(O)CC2)cccc1-c1cccc(-c2ccc3c(c2)CCNC3)c1C [Compd 1.111]
The IC50 of the first is higher: 1000 to 10000 nM for the first, less than 1000 nM for the second. The second is the more potent here.

`COc1c(-c2ccc3c(c2)CCNC3)cccc1-c1cccc(OCCCN2CCC2(C)C)c1C` [Compd 1.088, 6-(3′-(3-(2,2-dimethylazetidin-1-yl)propoxy)-2-methoxy-2′-methyl-[1,1′-biphenyl]-3-yl)-1,2,3,4-tetrahydroisoquinoline] and `Cc1c(OCCCN2CCC2(C)C)cccc1-c1cccc(-c2ccc3c(c2)CCNC3)c1C` [Compd 1.125] cannot be ordered by IC50: less than 1000 nM for the first, less than 1000 nM for the second.

`Cc1c(OCCCN2CCC2(C)C)cccc1-c1cccc(-c2ccc3c(c2)CCNC3)c1Cl` [Compd 1.089, 6-(3′-(3-(2,2-dimethylazetidin-1-yl)propoxy)-2-chloro-2′-methyl-[1,1′-biphenyl]-3-yl)-1,2,3,4-tetrahydroisoquinoline] and `Cc1c(OCCCN2CCC2(C)C)cccc1-c1cccc(-c2ccc3c(c2)CCNC3)c1C#N` [Compd 1.102, 3′-(3-(2,2-dimethylazetidin-1-yl)propoxy)-2′-methyl-3-(1,2,3,4-tetrahydroisoquinolin-6-yl)-[1,1′-biphenyl]-2-carbonitrile] cannot be ordered by IC50: less than 1000 nM for the first, less than 1000 nM for the second.

`Cc1c(-c2ccc3c(c2)CCNC3)cccc1-c1cccc(OCCCN2[C@H](C)CC[C@H]2C)c1F` [Compd 1.091] and `Cc1c(-c2ccc3c(c2)CCNC3)cccc1-c1cccc(OCCCN2[C@H](C)CC[C@H]2C)c1Cl` [Compd 1.092] cannot be ordered by IC50: less than 1000 nM for the first, less than 1000 nM for the second.

`COc1cc(CN(C)C)ccc1-c1cccc(-c2cccc(OCCCN3CCC(F)CC3)c2C)c1C` [Compd 1.093] and `Cc1c(OCCCN2CCC(F)CC2)cccc1-c1cccc(-c2ccc(CN(C)C)cc2Cl)c1C` [Compd 1.095] fall in the same range of IC50: 1000 to 10000 nM for the first, 1000 to 10000 nM for the second.

`Cc1c(OCCCN2[C@H](C)CC[C@H]2C)cccc1-c1cccc(-c2ccc(CNCCC(=O)O)cc2)c1C` [Compd 1.097] and `Cc1c(OCCCN2[C@H](C)CC[C@H]2C)cccc1-c1cccc(-c2ccc(CNCCCC(=O)O)cc2)c1C` [Compd 1.100] cannot be ordered by IC50: less than 1000 nM for the first, less than 1000 nM for the second.

`Cc1c(OCCCN2[C@H](C)CC[C@H]2C)cccc1-c1cccc(-c2ccc([C@H](C)N)cc2)c1C` [Compd 1.098] and `Cc1c(OCCCN2[C@H](C)CC[C@H]2C)cccc1-c1cccc(-c2ccc([C@@H](C)N)cc2)c1C` [Compd 1.099] cannot be ordered by IC50: less than 1000 nM for the first, less than 1000 nM for the second.

`Cc1c(OCCCN2[C@H](C)CC[C@H]2C)cccc1-c1cccc(-c2ccc(CNCC(=O)O)cc2)c1C` [Compd 1.101] and `Cc1c(OCCCN2[C@H](C)CC[C@H]2C)cccc1-c1cccc(-c2ccc(CN)cc2)c1C` [Compd 1.121] cannot be ordered by IC50: less than 1000 nM for the first, less than 1000 nM for the second.

First: Cc1c(OCCCN2CCC2(C)C)cccc1-c1cccc(-c2ccc3c(c2)CCNC3)c1 [Compd 1.103, 6-(3′-(3-(2,2-dimethylazetidin-1-yl)propoxy)-2′-methyl-[1,1′-biphenyl]-3-yl)-1,2,3,4-tetrahydroisoquinoline]
Second: Cc1c(OCCCN2CCC2(C)C)cccc1-c1cccc(-c2ccc3c(c2)CNCC3)c1C [Compd 1.124]
The IC50 of the first is higher: 1000 to 10000 nM for the first, less than 1000 nM for the second.

`Cc1c(OCCCN2CCC(C)(F)CC2)cccc1-c1cccc(-c2ccc3c(c2)CCNC3)c1C` [Compd 1.104] and `Cc1c(OCCCN2CCCC2(C)C)cccc1-c1cccc(-c2ccc3c(c2)CCNC3)c1C` [Compd 1.105] cannot be ordered by IC50: less than 1000 nM for the first, less than 1000 nM for the second.

Compared with `CCOC(=O)CN1CCc2cc(-c3cccc(-c4cccc(OCCCN5[C@H](C)CC[C@H]5C)c4C)c3C)ccc2C1` [Compd 1.106], `Cc1c(OCCCN2[C@H](C)CC[C@H]2C)cccc1-c1cccc(-c2ccc3c(c2)CCN(CC(=O)O)C3)c1C` [Compd 1.108] is lower in IC50: 1000 to 10000 nM for the first, less than 1000 nM for the second. The second is the more potent here.

`Cc1c(OCCCN2[C@H](C)CC[C@H]2C)cccc1-c1cccc(-c2ccc3c(c2)CCN(CCO)C3)c1C` [Compd 1.107] and `Cc1c(OCCCN2[C@H](C)CC[C@H]2C)cccc1-c1cccc(-c2ccc3c(c2)CCNC3)c1C` [Compd 1.114] cannot be ordered by IC50: less than 1000 nM for the first, less than 1000 nM for the second.

`Cc1c(OCCCN2CC3(CC(O)C3)C2)cccc1-c1cccc(-c2ccc3c(c2)CCNC3)c1C` [Compd 1.109] and `Cc1c(OCCCN2CC(O)C2)cccc1-c1cccc(-c2ccc3c(c2)CCNC3)c1C` [Compd 1.112] cannot be ordered by IC50: less than 1000 nM for the first, less than 1000 nM for the second.

`Cc1c(OCCCN2[C@H](C)CC[C@H]2C)cccc1-c1cccc(-c2ccc(C(C)N)cc2)c1C` (some centres unmarked) [Compd 1.113] and `Cc1c(OCCCN2[C@H](C)CC[C@H]2C)cccc1-c1cccc(-c2ccc(C(C)(C)N)cc2)c1C` [Compd 1.119] cannot be ordered by IC50: less than 1000 nM for the first, less than 1000 nM for the second.

`COc1cccc(-c2cccc(-c3ccc4c(c3)CCNC4)c2C)c1C` [Compd 1.115, 6-(3′-methoxy-2,2′-dimethyl-[1,1′-biphenyl]-3-yl)-1,2,3,4-tetrahydroisoquinoline] and `Cc1ccccc1-c1cccc(-c2ccc3c(c2)CCNC3)c1C` [Compd 1.117, 6-(2,2′-dimethyl-[1,1′-biphenyl]-3-yl)-1,2,3,4-tetrahydroisoquinoline] fall in the same range of IC50: 1000 to 10000 nM for the first, 1000 to 10000 nM for the second.

Compared with `COc1cccc(-c2cccc(-c3ccc4c(c3)CCNC4)c2C)c1` [Compd 1.116, 6-(3′-methoxy-2-methyl-[1,1′-biphenyl]-3-yl)-1,2,3,4-tetrahydroisoquinoline], `Cc1c(-c2ccc3c(c2)CCNC3)cccc1-c1ccc2c(c1)OCCO2` [Compd 1.126] is lower in IC50: 1000 to 10000 nM for the first, less than 1000 nM for the second. The second is the more potent here.

`Cc1c(OCCCN2[C@H](C)CC[C@H]2C)cccc1-c1cccc(-c2ccc(CCN)cc2)c1C` [Compd 1.118] and `Cc1c(OCCCN2[C@H](C)CC[C@H]2C)cccc1-c1cccc(-c2ccc(CN(C)C)cc2)c1C` [Compd 1.122] cannot be ordered by IC50: less than 1000 nM for the first, less than 1000 nM for the second.

`Cc1c(OCCCN2[C@H](C)CC[C@H]2C)cccc1-c1cccc(-c2ccc3c(c2)CNC3)c1C` [Compd 1.120] and `Cc1c(OCCCN2CCC2(C)C)cccc1-c1cccc(-c2ccc3c(c2)CNCCC3)c1C` [Compd 1.123] cannot be ordered by IC50: less than 1000 nM for the first, less than 1000 nM for the second.

`Cc1c(-c2ccc(CN)cc2)cccc1-c1ccc2c(c1)OCCO2` [Compd 1.127] and `Cc1c(-c2ccc3c(c2)CNCC3)cccc1-c1ccc2c(c1)OCCO2` [Compd 1.128] fall in the same range of IC50: 1000 to 10000 nM for the first, 1000 to 10000 nM for the second.
